This is an account of results in paper PMC9072222 (RSC Advances, 2019).

The test system of data set [1] is db/db mice. Put plainly: Modified multiple IPGTTs in fasted db/db mice. Format: in vivo, mouse. As to conditions: 0.1 mg kg^−1 single dose, IPGTT at 30 hours.
For data set [2], the system named is db/db mice. Put plainly: Hypoglycemic duration test in non-fasted db/db mice. Format: in vivo, mouse. As to conditions: 0.1 mg kg^−1 s.c., n = 8.
For data set [3], the system named is db/db mice. Put plainly: Chronic 8 week in vivo study in db/db mice. Also noted: species or system mouse. The conditions noted are these: Liraglutide 0.1 mg kg^−1 s.c., 8 week treatment, blood.
The conditions of data set [4]: species not given; ref not given; cited from earlier work.

Turning to `CCCCCCCCCCCCCCCC(=O)N[C@@H](CCC(=O)NCCCC[C@H](NC(=O)[C@H](C)NC(=O)[C@H](C)NC(=O)[C@H](CCC(N)=O)NC(=O)CNC(=O)[C@H](CCC(=O)O)NC(=O)[C@H](CC(C)C)NC(=O)[C@H](Cc1ccc(O)cc1)NC(=O)[C@H](CO)NC(=O)[C@H](CO)NC(=O)[C@@H](NC(=O)[C@H](CC(=O)O)NC(=O)[C@H](CO)NC(=O)[C@@H](NC(=O)[C@H](Cc1ccccc1)NC(=O)[C@@H](NC(=O)CNC(=O)[C@H](CCC(=O)O)NC(=O)[C@H](C)NC(=O)[C@@H](N)Cc1cnc[nH]1)[C@@H](C)O)[C@@H](C)O)C(C)C)C(=O)N[C@@H](CCC(=O)O)C(=O)N[C@@H](Cc1ccccc1)C(=O)N[C@H](C(=O)N[C@@H](C)C(=O)N[C@@H](Cc1c[nH]c2ccccc12)C(=O)N[C@@H](CC(C)C)C(=O)N[C@H](C(=O)N[C@@H](CCCNC(=N)N)C(=O)NCC(=O)N[C@@H](CCCNC(=N)N)C(=O)NCC(=O)O)C(C)C)[C@@H](C)CC)C(=O)O` [Liraglutide], the “glucose-lowering effect at 30 hours” value in data set [1] is recorded as “almost ineffective”. Besides, the “glucose-lowering percentage by AUC0–96 h vs saline” value in data set [2] was found to be 18.9%. Moreover, in data set [3], the ALT amounted to 45.1 ± 5.1 IU L^−1, the Cholesterol is 4.1 ± 0.6 mmol/L, the HDL-cholesterol amounted to 2.6 ± 0.1 mmol/L and the LDL-cholesterol is 0.8 ± 0.1 mmol/L. In data set [3], the Triglyceride was determined as 1.1 ± 0.2 mmol/L. In data set [4], the in vivo half-life was roughly 8 h.
